How the values were obtained:
Assay type in all cases: in vivo, human
[1] = test system: Cushing's syndrome patients; test: 24-hr Urinary Free Cortisol, Group 1, 12 week ascending-dose relacorilant study; conditions: for change in cortisol levels: Cushing's syndrome patients, Groups 1 and 2 (Tables 1 and 2); for Mean 24-hr UFC: Group 1, baseline 215.6
Excerpt: (§1) Cortisol levels can be measured in a biological sample, such as saliva, urine, whole blood, serum, plasma, or any other biological fluid taken from a patient suffering from Cushing's syndrome. Such samples are typically analyzed in vitro. In some cases, the same sample is used to measure cortisol level and ACTH level. In other cases, different samples are used to measure cortisol and ACTH levels. For example, cortisol levels can be measured in saliva or urine, and ACTH levels can be measured in plasma. In yet other cases, different samples of the same type are used to measure the levels. Methods for measuring cortisol levels are known to those in the art. Useful assays include immunoassays, e.g., competitive immunoassay, radioimmunoassay, immunofluorometric enzyme assay, and ELISA, competitive protein-binding assay and mass spectrometry, e.g., high-performance liquid chromatography/triple quadrupole-mass spectrometry (LC-MS/MS). Commercial kits for measuring cortisol in sample are available from, e.g., Beckman-Coulter, Seimens, Roche Diagnostics, and the like. Non-limiting examples of an immunoassay include an ADVIA Centaur® Cortisol assay (Siemens Healthcare Global), […] i2000SR cortisol (Abbott), Immulite® 2000 Cortisol assay (Siemans Healthcare Global; #L2KCO2), Vitros® ECi Cortisol assay (Ortho Clinical Diagnostics; #107 4053), and Elecsys® Cortisol Immunoassay (Roche Molecular Diagnostics; #11875116160).
Cortisol levels were measured in Cushing's syndrome patients who were administered doses of the heteroaryl-ketone fused azadecalin compound relacorilant. Urinary Free Cortisol (UFC) was measured in these patients over the course of a 12 week study in which ascending doses of relacorilant were administered.

[2] = test system: ectopic tumor (somatostatin receptor expression); test: Indium octreoscan imaging of ectopic tumor before and after relacorilant treatment; conditions: one patient; oral once daily 250, 300, 350, 400 mg/day, four weeks each; 111Indium octreotide
Description: In a further attempt to image, and to localize, the tumor in the patient, an indium octreoscan image (patient was administered Octreotide radiolabeled with ^111Indium prior to imaging) was obtained, in which a dot was seen which enabled localization of the tumor to the right lung/mediastinum region of the patient.
Relacorilant was then orally administered to the patient once per day for four months. The patient was administered 250 milligrams (mg) per day of relacorilant for four weeks, followed by 300 mg/day relacorilant for the next four weeks, followed by 350 mg/day relacorilant for a further four weeks, and then was administered 400 mg relacorilant for another four weeks.
The indium octreoscan image of FIG. 2 provides a much improved and enhanced image of the tumor in the patient as compared to the image of FIG. 1. It is believed that the improvement in the indium octreoscan image of FIG. 2 as compared to the image shown in FIG. 1 was due to increased somatostatin receptor expression, e.g., due to increased sst2 receptor expression, as compared to that expression prior to the relacorilant treatment.

[3] = test system: Cushing's syndrome patients; test: Mean ACTH levels in relacorilant Groups 1 and 2
Excerpt: Cortisol levels obtained for individual patients and the UFC tabular summary (Tables 1 and 2 above) show no significant changes from baseline in UFC.

[4] = test system: Cushing's syndrome patients; test: 24-hr Urinary Free Cortisol, Group 2, 16 week ascending-dose relacorilant study
Excerpt: as §1
Cortisol levels were measured in a second group of Cushing's syndrome patients who were administered doses of relacorilant. Urinary Free Cortisol (UFC) was measured in these patients over the course of a 16 week study in which ascending doses of relacorilant were administered.

[5] = test system: Cushing's syndrome patients; test: Drug-induced hypokalemia in Phase 2 study of relacorilant

SMILES: Cn1cc(S(=O)(=O)N2CCC3=Cc4c(cnn4-c4ccc(F)cc4)C[C@]3(C(=O)c3cc(C(F)(F)F)ccn3)C2)cn1 [relacorilant, (R)-(1-(4-fluorophenyl)-6-((1-methyl-1H-pyrazol-4-yl)sulfonyl)-4,4a,5,6,7,8-hexahydro-1H-pyrazolo[3,4-g]isoquinolin-4a-yl)(4-(trifluoromethyl)pyridin-2-yl)methanone]
- change in cortisol levels [1]: does not lead to significant increases in cortisol levels
- change in cortisol levels ([1]; listed as Relacorilant): no increases in cortisol concentrations
- Mean 24-hr UFC ([1]; relacorilant 100 mg, Wk 2): 151.8 µg/day
- Mean 24-hr UFC ([1]; relacorilant 100 mg, Wk 4): 157.0 µg/day
- Mean 24-hr UFC ([1]; relacorilant 150 mg, Wk 6): 145.3 µg/day
- Mean 24-hr UFC ([1]; relacorilant 150 mg, Wk 8): 134.9 µg/day
- Mean 24-hr UFC ([1]; relacorilant 200 mg, Wk 10): 180.9 µg/day
- Mean 24-hr UFC ([1]; relacorilant 200 mg, Wk 12): 211.6 µg/day
- effect on indium octreoscan images of the ectopic tumor [2]: enhanced
- mean ACTH ([3]; Group 1, Week 12, SD 10.34, Baseline 11.02±8.04): 14.68 pmol/L
- mean ACTH ([3]; Group 2, Week 16 or last-observed, SD 10.72, Baseline 12.79±8.36): 15.56 pmol/L
- change in ACTH ([3]; baseline to end of treatment): only modest increases in ACTH
- Mean 24-hr UFC ([4]; relacorilant 250 mg, Wk 2, baseline 228.1): 252.1 µg/day
- Mean 24-hr UFC ([4]; relacorilant 250 mg, Wk 4, baseline 228.1): 218.2 µg/day
- Mean 24-hr UFC ([4]; relacorilant 300 mg, Wk 6, baseline 228.1): 257.4 µg/day
- Mean 24-hr UFC ([4]; relacorilant 300 mg, Wk 8, baseline 228.1): 149.1 µg/day
- Mean 24-hr UFC ([4]; relacorilant 350 mg, Wk 10, baseline 228.1): 185.4 µg/day
- Mean 24-hr UFC ([4]; relacorilant 350 mg, Wk 12, baseline 228.1): 249.0 µg/day
- Mean 24-hr UFC ([4]; relacorilant 400 mg, Wk 14, baseline 228.1): 194.1 µg/day
- Mean 24-hr UFC ([4]; relacorilant 400 mg, Wk 16, baseline 228.1): 203.1 µg/day
- drug-induced hypokalemia [5]: lack of drug-induced hypokalemia

Source: patent US12290551B2, “Methods for imaging and treatment of somatostatin-receptor positive tumors” (Corcept Therapeutics Incorporated, priority 2018, dated 2025)
